Laboratory results taken from publication PMC10607100, “Anticancer and Antiphytopathogenic Activity of Fluorinated Isatins and Their Water-Soluble Hydrazone Derivatives” (International Journal of Molecular Sciences, 2023).
Read-outs that look alike come from different tables or passages of the source.

How the values were obtained:
[1] = test system: Xanthomonas campestris B-610; assay: Agar-well diffusion, bactericidal activity; format: cell-based; conditions: Xanthomonas campestris
Method in brief: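 Agar-well diffusion on GYCa agar (pH 7.2–7.4) seeded with bacterial suspension; 150 μL compound solution placed in 6-mm wells. Inhibition zone width measured after 36–40 h incubation.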

[2] = test system: Pectobacterium atrosepticum 1043; assay: Agar-well diffusion, bactericidal activity; format: cell-based; conditions: Pectobacterium atrosepticum, 1043; 2 mM/L; average of 3 experiments; read-out: width of the inhibition zone (mm), P. atrosepticum
Method in brief: (§1)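 Bacteria spread on agar (BP medium; GYCa for X. campestris; pH 7.2–7.4) with 6-mm wells, each receiving 150 μL compound solution. Cultures grown at 28 °C; growth-inhibition zone width measured after 36–40 h.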

[3] = test system: Pseudomonas fluorescens EL-2.1; assay: Agar-well diffusion, bactericidal activity; format: cell-based; conditions: Pseudomonas fluorescens, EL2.1, 2 mM/L
Method in brief: as §1

[4] = test system: Micrococcus luteus B-109; assay: Agar-well diffusion, bactericidal activity; format: cell-based; conditions: Micrococcus luteus
Method in brief: as §1

[5] = test system: Pectobacterium carotovorum subsp. carotovorum MI; assay: Agar-well diffusion, bactericidal activity; format: cell-based; conditions: Pectobacterium carotovorum, 2 mM/L
Method in brief: as §1

[6] = test system: Phytophthora cactorum VKM F-985; assay: Mycelial radial growth inhibition; format: cell-based; conditions: for inhibition of growth at 1 µM: 1 nmol/mL; for inhibition of growth at 1 µM / inhibition of growth at 3 µM / inhibition of growth at 7 µM / inhibition of growth / inhibition of growth at 40 µM: read-out: Inhibition value, I (%); for inhibition of growth at 3 µM: 3 nmol/mL; for inhibition of growth at 7 µM: 7 nmol/mL; for inhibition of growth: 27 nmol/mL; for inhibition of growth at 40 µM: 40 nmol/mL
Method in brief: (§2)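 Compounds mixed into molten GPY agar at various concentrations; centre inoculated with a 5-mm mycelial plug from 10-day cultures and incubated at 27 °C. Colony diameter compared with untreated control until control plate was covered (usually 12 days); ≥4 replicates in two experiments.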

[7] = test system: Fusarium oxysporum IBPPM 543; assay: Mycelial radial growth inhibition; format: cell-based; conditions: for inhibition of growth at 1 µM: 1 nmol/mL; for inhibition of growth at 1 µM / inhibition of growth at 3 µM / inhibition of growth at 20 µM / inhibition of growth at 30 µM: read-out: Inhibition value, I (%); for inhibition of growth at 3 µM: 3 nmol/mL; for inhibition of growth at 20 µM: 20 nmol/mL; for inhibition of growth at 30 µM: 30 nmol/mL
Method in brief: as §2

[8] = test system: five representative phytopathogens; assay: Agar-well diffusion, bactericidal activity over the panel of phytopathogens; format: cell-based; conditions: 36 h, 2 mM solutions; dependent on the test system used; read-out: inhibition zone width (mm), range over the test systems
Method in brief: as §1

[9] = Table S3, read-out: Inhibition zone width (mm), not less
[10] = Phytophthora cactorum, 72 h, age of the fungus 3 days
[11] = Phytophthora cactorum, 120 h, age of the fungus 5 days
[12] = Phytophthora cactorum, 168 h, age of the fungus 7 days
[13] = Phytophthora cactorum, 216 h, age of the fungus 9 days
[14] = Fusarium oxysporum, IBPPM543, 72 h, age of the fungus 3 days
[15] = Fusarium oxysporum, IBPPM543, 120 h, age of the fungus 5 days
[16] = Fusarium oxysporum, IBPPM543, 168 h, age of the fungus 7 days
[17] = Fusarium oxysporum, IBPPM543, 216 h, age of the fungus 9 days

Cc1ccc2c(c1)C(=NNC(=O)C[n+]1ccccc1)C(=O)N2Cc1cccc(C(F)(F)F)c1.[Cl-] [Compound 5e, 1-(2-(2-(5-Methyl-2-oxo-1-(3-(trifluoromethyl)benzyl)indolin-3-ylidene)hydrazinyl)-2-oxoethyl)pyridin-1-ium chloride]
zone of inhibition at 2000 µM ([1]; B610, 2 mM/L, average of 3 experiments, read-out: width of the inhibition zone (mm), X. campestris): 5 mm
zone of inhibition at 2000 µM ([1]; B610, Table S3, 2 mM/L, read-out: Inhibition zone width (mm), not less): ≥ 5 mm
melting point: 202 to 203 °C
zone of inhibition at 2000 µM [2]: 4 mm
zone of inhibition at 2000 µM ([3]; average of 3 experiments, read-out: width of the inhibition zone (mm), Ps. fluorescens): 7 mm
zone of inhibition at 2000 µM [3, 9]: ≥ 7 mm
zone of inhibition at 2000 µM ([4]; B109, 2 mM/L, average of 3 experiments, read-out: width of the inhibition zone (mm), M. luteus): 6 mm
zone of inhibition at 2000 µM ([4]; B109, Table S3, 2 mM/L, read-out: Inhibition zone width (mm), not less): ≥ 6 mm
zone of inhibition at 2000 µM ([5]; average of 3 experiments, read-out: width of the inhibition zone (mm), P. carotovorum subsp. carotovorum): 5 mm
zone of inhibition at 2000 µM [5, 9]: ≥ 5 mm
antagonistic effect superior to that of N-cetylpyridinium chloride ([6]; 5 days of growth): 1.3 times
antagonistic effect superior to that of fludioxonil ([6]; 5 days of growth): 1.1 times
inhibition of growth at 1 µM [6, 10]: 20%
inhibition of growth at 3 µM [6, 10]: 23%
inhibition of growth at 7 µM [6, 10]: 25%
inhibition of growth [6, 10]: 28%
inhibition of growth at 40 µM [6, 10]: 35%
EC50 ([6]; Phytophthora cactorum, 120 h, day 5, read-out: EC50, µg/mL at Day 5, P. cactorum): 27.4 µg/mL
inhibition of growth at 1 µM [6, 11]: 16%
inhibition of growth at 3 µM [6, 11]: 19%
inhibition of growth at 7 µM [6, 11]: 30%
inhibition of growth [6, 11]: 35%
inhibition of growth at 40 µM [6, 11]: 38%
inhibition of growth at 1 µM [6, 12]: 15%
inhibition of growth at 3 µM [6, 12]: 17%
inhibition of growth at 7 µM [6, 12]: 23%
inhibition of growth [6, 12]: 26%
inhibition of growth at 40 µM [6, 12]: 29%
inhibition of growth at 1 µM [6, 13]: 14%
inhibition of growth at 3 µM [6, 13]: 17%
inhibition of growth at 7 µM [6, 13]: 19%
inhibition of growth [6, 13]: 21%
inhibition of growth at 40 µM [6, 13]: 26%
inhibition of growth at 1 µM [7, 14]: 33%
inhibition of growth at 3 µM [7, 14]: 66%
inhibition of growth at 20 µM [7, 14]: 69%
inhibition of growth at 30 µM [7, 14]: 75%
EC50 ([7]; Fusarium oxysporum, IBPPM543, 120 h, day 5, read-out: EC50, µg/mL at Day 5, F. oxysporum): 0.6 µg/mL
inhibition of growth at 1 µM [7, 15]: 48%
inhibition of growth at 3 µM [7, 15]: 67%
inhibition of growth at 20 µM [7, 15]: 72%
inhibition of growth at 30 µM [7, 15]: 76%
inhibition of growth at 1 µM [7, 16]: 33%
inhibition of growth at 3 µM [7, 16]: 65%
inhibition of growth at 20 µM [7, 16]: 69%
inhibition of growth at 30 µM [7, 16]: 72%
inhibition of growth at 1 µM [7, 17]: 18%
inhibition of growth at 3 µM [7, 17]: 64%
inhibition of growth at 20 µM [7, 17]: 67%
inhibition of growth at 30 µM [7, 17]: 71%
IC50 ([7]; Fusarium oxysporum, IBPPM543, read-out: IC50, antifungal activity against F. oxysporum): 0.6 µg/mL
fungicidal action stronger than N-cetylpyridinium chloride ([7]; same culture age (5 days)): 235 times
inhibition of Fusarium growth greater than fludioxonil ([7]; same culture age (5 days)): 139 times
zone of inhibition at 2000 µM [8]: 4 to 7 mm
